Eleven molecules from patent publication US11339128B2 (Firmenich Incorporated, priority 2014, dated 2022) can be followed below.

This experiment addresses T1, T1R2/T1R3 taste receptor (Homo sapiens, UniProt Q7RTX0+Q8TE23).
T1 sequence (Q8TE23 20-839): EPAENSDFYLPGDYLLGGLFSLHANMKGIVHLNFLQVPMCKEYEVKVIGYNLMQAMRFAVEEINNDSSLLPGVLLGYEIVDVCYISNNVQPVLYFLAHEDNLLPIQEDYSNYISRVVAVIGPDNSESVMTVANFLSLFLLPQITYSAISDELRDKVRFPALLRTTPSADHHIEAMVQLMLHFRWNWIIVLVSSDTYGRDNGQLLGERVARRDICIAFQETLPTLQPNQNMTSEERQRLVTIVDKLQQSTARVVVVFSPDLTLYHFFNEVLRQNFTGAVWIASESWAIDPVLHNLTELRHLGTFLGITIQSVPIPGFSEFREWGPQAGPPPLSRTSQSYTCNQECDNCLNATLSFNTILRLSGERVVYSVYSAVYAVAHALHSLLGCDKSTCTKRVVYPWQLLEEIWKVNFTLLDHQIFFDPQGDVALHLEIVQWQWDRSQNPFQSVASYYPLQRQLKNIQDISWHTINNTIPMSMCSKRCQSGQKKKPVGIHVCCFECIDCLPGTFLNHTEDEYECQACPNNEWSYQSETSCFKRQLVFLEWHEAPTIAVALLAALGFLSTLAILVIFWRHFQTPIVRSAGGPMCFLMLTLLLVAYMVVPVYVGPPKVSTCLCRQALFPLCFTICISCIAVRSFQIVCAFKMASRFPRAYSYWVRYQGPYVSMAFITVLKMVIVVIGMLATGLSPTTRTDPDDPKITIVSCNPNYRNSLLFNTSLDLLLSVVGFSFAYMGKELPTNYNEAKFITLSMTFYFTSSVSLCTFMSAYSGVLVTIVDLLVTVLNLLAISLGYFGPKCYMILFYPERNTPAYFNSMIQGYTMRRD
T1 sequence (Q7RTX0 21-852): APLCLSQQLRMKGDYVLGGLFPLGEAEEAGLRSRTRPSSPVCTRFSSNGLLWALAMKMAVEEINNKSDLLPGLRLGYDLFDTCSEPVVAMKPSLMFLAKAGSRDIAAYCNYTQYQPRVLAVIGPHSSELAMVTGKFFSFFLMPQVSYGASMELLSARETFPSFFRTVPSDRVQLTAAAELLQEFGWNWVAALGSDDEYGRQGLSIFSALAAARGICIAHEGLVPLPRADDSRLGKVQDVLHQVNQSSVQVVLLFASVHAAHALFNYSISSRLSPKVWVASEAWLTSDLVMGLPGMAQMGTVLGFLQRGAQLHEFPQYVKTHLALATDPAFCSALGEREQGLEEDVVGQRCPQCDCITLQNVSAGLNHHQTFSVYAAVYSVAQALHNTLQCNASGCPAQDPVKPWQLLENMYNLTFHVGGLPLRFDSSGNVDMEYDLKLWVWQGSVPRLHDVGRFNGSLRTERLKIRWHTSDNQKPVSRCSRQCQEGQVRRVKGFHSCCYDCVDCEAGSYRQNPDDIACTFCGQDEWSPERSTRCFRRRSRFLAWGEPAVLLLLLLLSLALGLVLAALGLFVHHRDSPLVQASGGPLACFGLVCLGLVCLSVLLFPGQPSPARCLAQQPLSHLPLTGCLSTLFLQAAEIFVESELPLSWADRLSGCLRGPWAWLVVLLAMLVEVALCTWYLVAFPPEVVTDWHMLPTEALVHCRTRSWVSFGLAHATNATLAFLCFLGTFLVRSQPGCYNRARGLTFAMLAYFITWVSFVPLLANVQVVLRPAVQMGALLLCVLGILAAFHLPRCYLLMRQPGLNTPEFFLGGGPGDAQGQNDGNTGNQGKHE
Put plainly: Receptor-based assay: sweetener EC50 enhancement ratio with and without test compound. It is filed as cell-based. Conditions: for Sucrose Enhancement EC50 Ratio: sweetener sucrose; for Sucralose Enhancement EC50 Ratio: sweetener sucralose. The method, then:
Potencies (EC50 values) for the sweeteners sucrose, sucralose, and fructose were measured against the T1R2/T1R3 taste receptor. EC50 was determined using the sweetener alone and in the presence of 1 μM, 3 μM, 10 μM, or 50 μM of test compound. EC50 ratios were calculated by the ratio of potency with and without the test compound. An “A” value indicates an enhancement ratio of greater than 1 and less than 10. A “B” value indicates an enhancement ratio from 10 to 20. A “C” value indicates an enhancement ratio greater than 20.

As for `Cc1cnn(CC(=O)N[C@H]2CC[C@H](Oc3cccc4nc(C)c(C(=O)O)c(N)c34)CC2)c1` [Compound 330], the “Sucrose Enhancement EC50 Ratio” value was “A (an enhancement ratio of greater than 1 and less than 10)” (1 μM test compound); “A (an enhancement ratio of greater than 1 and less than 10)” (3 μM test compound); “A (an enhancement ratio of greater than 1 and less than 10)” (10 μM test compound).
As for `CCC(CC)COCC(=O)N[C@H]1CC[C@H](Oc2cccc3nc(C)c(C(=O)O)c(N)c23)CC1` [Compound 331], the “Sucrose Enhancement EC50 Ratio” value (1 μM test compound) is “A (an enhancement ratio of greater than 1 and less than 10)”; the “Sucrose Enhancement EC50 Ratio” value (3 μM test compound) is “A (an enhancement ratio of greater than 1 and less than 10)”; the “Sucrose Enhancement EC50 Ratio” value (10 μM test compound) is given as “C (an enhancement ratio greater than 20)”.
For the molecule `CCOCCOCC(=O)N[C@H]1CC[C@H](Oc2cccc3nc(C)c(C(=O)O)c(N)c23)CC1` [Compound 332], the “Sucrose Enhancement EC50 Ratio” value is “A (an enhancement ratio of greater than 1 and less than 10)” (1 μM test compound); “B (an enhancement ratio from 10 to 20)” (3 μM test compound).
Turning to `Cc1nc2cccc(O[C@H]3CC[C@H](NC(=O)COCCOCc4ccccc4)CC3)c2c(N)c1C(=O)O` [Compound 333], the “Sucrose Enhancement EC50 Ratio” value is, setting by setting: (1 μM test compound) “A (an enhancement ratio of greater than 1 and less than 10)”; (3 μM test compound) “B (an enhancement ratio from 10 to 20)”.
In the case of `Cc1nc2cccc(O[C@H]3CC[C@H](NC(=O)COCCO)CC3)c2c(N)c1C(=O)O` [Compound 334], the “Sucrose Enhancement EC50 Ratio” value is “A (an enhancement ratio of greater than 1 and less than 10)” (1 μM test compound); “A (an enhancement ratio of greater than 1 and less than 10)” (3 μM test compound); “C (an enhancement ratio greater than 20)” (10 μM test compound). Under “10 μM test compound, sweetener fructose”, the “Fructose Enhancement EC50 Ratio” value was “A (an enhancement ratio of greater than 1 and less than 10)”.
As to `CCCCOCC(=O)N[C@H]1CC[C@H](Oc2cccc3nc(C)c(C(=O)O)c(N)c23)CC1` [Compound 335], the “Sucrose Enhancement EC50 Ratio” value (1 μM test compound) is “B (an enhancement ratio from 10 to 20)”. For the same molecule, for the setting “3 μM test compound”, the “Sucralose Enhancement EC50 Ratio” value was “C (an enhancement ratio greater than 20)” and the “Sucrose Enhancement EC50 Ratio” value is listed as “C (an enhancement ratio greater than 20)”.
As for `COCCOCC(=O)N[C@H]1CC[C@H](Oc2cccc3nc(C)c(C(=O)O)c(N)c23)CC1` [Compound 336], the “Sucrose Enhancement EC50 Ratio” value (1 μM test compound) was “A (an enhancement ratio of greater than 1 and less than 10)”. In addition, for the setting “3 μM test compound”, the “Sucralose Enhancement EC50 Ratio” value was “B (an enhancement ratio from 10 to 20)” and the “Sucrose Enhancement EC50 Ratio” value was “C (an enhancement ratio greater than 20)”.
As to `Cc1nc2cccc(O[C@H]3CC[C@H](NC(=O)COCC4CCCCC4)CC3)c2c(N)c1C(=O)O` [Compound 337], the “Sucrose Enhancement EC50 Ratio” value (1 μM test compound) was “A (an enhancement ratio of greater than 1 and less than 10)”; the “Sucrose Enhancement EC50 Ratio” value (3 μM test compound) was “C (an enhancement ratio greater than 20)”.
On to `Cc1nc2cccc(O[C@H]3CC[C@H](NC(=O)COCC4CCCC4)CC3)c2c(N)c1C(=O)O` [Compound 338], for which the “Sucrose Enhancement EC50 Ratio” value (1 μM test compound) is “A (an enhancement ratio of greater than 1 and less than 10)”.
Turning to `Cc1nc2cccc(O[C@H]3CC[C@H](NC(=O)COCC4CCOCC4)CC3)c2c(N)c1C(=O)O` [Compound 339], the “Sucrose Enhancement EC50 Ratio” value is “A (an enhancement ratio of greater than 1 and less than 10)” (1 μM test compound); “B (an enhancement ratio from 10 to 20)” (3 μM test compound).
Consider `Cc1nc2cccc(O[C@H]3CC[C@H](NC(=O)COCCC(C)C)CC3)c2c(N)c1C(=O)O` [Compound 340], for which the “Sucrose Enhancement EC50 Ratio” value by setting is: (1 μM test compound) “B (an enhancement ratio from 10 to 20)”; (3 μM test compound) “B (an enhancement ratio from 10 to 20)”. The “Sucralose Enhancement EC50 Ratio” value (3 μM test compound) is “A (an enhancement ratio of greater than 1 and less than 10)”.
